Assay results as given in ChEMBL document CHEMBL1275254 (2010).

System: Burkholderia pseudomallei
Assay: Antimicrobial activity against Burkholderia pseudomallei Bp227 harboring deleted (bpeAB-oprA)::FRT gene after 24 hrs by broth microdilution method
Assay type: functional

## GENTAMICIN
  MIC: 256 µg/mL
